Test results published in patent US11535590B2, “Sulfonium salt photoinitiator, preparation method therefor, photocurable composition comprising sulfonium salt photoinitiator, and use thereof” (CHANGZHOU TRONLY NEW ELECTRONIC MATERIALS CO., LTD., priority 2017, dated 2022).
Read-outs that look alike come from different tables or passages of the source.

Assay: Evaluation of solubilities of photoinitiators in cationic active diluents
Assay type: physicochemical
Conditions: for Solubility in DOX: diluent DOX: 3,3′-[oxybismethylene]bis[3-ethyl] oxetane; for Solubility in DVE-3: diluent DVE-3: triethyleneglycol divinyl ether; for Solubility in Epoxy resin 6110: diluent Epoxy resin 6110: 3.4-epoxycyclohexylmethyl-3,4-epoxycyclohexyl carboxylate
[1] = diluent POX: 3-ethyl-3-(phenoxymethyl) oxetane

Solubility in DOX	Solubility in DVE-3	Solubility in Epoxy resin 6110	Solubility in POX [1]	Solubility in POX	Compound
>10%	>10%	>10%	>10%	–	CCOC(=O)C(=O)c1ccc(Oc2ccc([S+](c3ccccc3)c3ccccc3)cc2)cc1 [Compound 2]
<2%	<2%	<2%	–	<2%	[F][Sb-]([F])([F])([F])([F])[F].[F][Sb-]([F])([F])([F])([F])[F].c1ccc([S+](c2ccccc2)c2ccc(Sc3ccc([S+](c4ccccc4)c4ccccc4)cc3)cc2)cc1 [UVI6976, bis(4,4′-thioethertriphenylsulfonium) hexafluoroantimonate, reference compound]
>10%	>10%	>10%	>10%	–	COC(=O)C(=O)c1ccc(Sc2ccc([S+](c3ccc(Sc4ccc(C(=O)C(=O)OC)cc4)cc3)c3ccc(Sc4ccc(C(=O)C(=O)OC)cc4)cc3)cc2)cc1 [Compound 1]
>10%	>10%	>10%	>10%	–	CCOC(=O)C(=O)c1ccc(Oc2ccc([S+](c3ccc(C)cc3)c3ccc(C)cc3)cc2)cc1 [Compound 7]

Compound	Solubility in DOX	Solubility in DVE-3	Solubility in Epoxy resin 6110	Solubility in POX [1]	Solubility in POX
phenylthiophenyl diphenylsulfonium hexafluoroantimonate [UVI6992, reference compound]	<2%	<2%	<2%	<2%	–
